One test concerns the target human GOAT (Homo sapiens (Human), UniProt Q96T53). Briefly: In vitro cell free human GOAT enzymatic assay. The test is classed as biochemical. The conditions noted are these: cell free human GOAT enzyme, ELISA readout of acyl-ghrelin.
A further test deals with GOAT enzyme (Mus musculus (Mouse), UniProt P0C7A3). Briefly: In vivo dose dependent 3 day BID study for GOAT inhibitor (plasma AG, UAG by ELISA). More on the design: species or system male C57BL/6 mice. The conditions noted are these: mice; for decrease of plasma AG / increase of UAG / reduction in AG to total ghrelin ratio: 3 days; for decrease of plasma AG / increase of UAG: vs vehicle; for reduction in AG to total ghrelin ratio: vs vehicle-treated control animals; for AG (% of control) / AG/Total-ghrelin (% of vehicle control) / UAG (% of vehicle control): plasma. On the procedure: Comparing the change in the ratio of AG to total ghrelin in the compound treated group and that of the vehicle treated group reflects the degree of GOAT enzyme inhibition in vivo, due to the dynamic processing of UAG to AG by the GOAT enzyme. In the in vivo pharmacodynamic studies herein, the levels of AG and UAG in plasma and stomach in the vehicle and compound treated groups are measured by ELISA specifically to these two analytes. The total ghrelin level of each sample is computed as the sum of AG and UAG by these ELISA measurements. The ratio of AG to total ghrelin is defined by the level of AG in each sample divided by the level of total ghrelin in the same sample. The levels of AG, UAG and ratio of AG to total ghrelin in the vehicle treated group is computed and set as 100%. The relative change of these parameters in the compound treated group is then computed to determine the effectiveness of the test compound.
Purchase male C57BL/6 mice from Harlan (Indianapolis, Ind.) at 9 weeks of age. House the mice individually in a temperature-controlled (24° C.) facility with a 12 h light/dark cycle (lights on 2200 h), and allow free access to a standard rodent chow (diet 2014, Harlan) and water. Typically, use the mice when they are 10-13 weeks of age at the time of the study. On day 0 of the experiment, randomize the mice into treatment groups (N=7/group) so each group has similar mean body weights. On day 1 and day 2, treat the animals with vehicle (1% hydroxyethylcellulose, 0.25% TWEEN™ 80, 0.05% antifoam) or test compound prepared in the vehicle as suspension at various dosages by oral gavage at 7 am and 7 pm. On day 3, fast the animals, move them into clean cages and dose with vehicle or the test compound again at 8 am by oral gavage. That same day at 1 pm, sacrifice the animals by decapitation to collect blood. For details of blood collection and plasma treatments see Blood collection and Extraction of Ghrelin from Plasma section below.
Collect approximately 600 μL blood into a pre-weighed EDTA tube containing 600 μL (defined as Vpreservative) freshly-prepared preservative (4 mM PEFABLOC® [4-(2-aminoethyl) benzenesulfonyl fluoride hydrochloride], 72 mM NaCl, 58 mM NaF, 0.032 N hydrochloric acid, pH 3.0) and mix immediately. Weigh the tube again and keep on ice. To accurately determine the exact blood volume of each sample using this blood collection procedure, the weight of the blood for each mouse is computed using the following equation: Weight of Blood=(Weight of the tube containing Blood+preservative)−(Weight of the tube containing preservative) Blood volume(Vblood)=(Weight of blood)/1.06
Within 15 minutes after the blood collection, samples are centrifuged at 5000 rpm at 4° C. for 8 min. Remove plasma (650 μL) to a 5 mL glass tube containing 1 N hydrochloric acid (65 μL), mix and keep on ice.
AG and UAG are extracted from plasma using SEP-PAK® C18 column to remove interference prior to performing the ELISA. The solid phase extraction of AG and UAG peptides by SEP-PAK® C18 columns can be performed on a vacuum manifold (Waters Corp) or using a peristaltic pump. The sample SEP-PAK® column extraction procedure is independently applied to the plasma sample obtained from each individual mouse. The general extraction protocol is described as follows.
All solutions used for the entire protocol of the SEP-PAK® column extraction should be at ice cold condition. Wet SEP-PAK®_columns (WAT054960, Waters Corp, Milford Mass.) with 99.9% ACN/0.1% TFA (1 mL of solution of 100 mL ACN/0.1 mL TFA). […] Once liquid is removed from the column, stop the pressure. Equilibrate the columns with 3% ACN/0.1% TFA (1 mL of 97 mL water, 3 mL ACN, 0.1 mL TFA). […] Dilute approximately 650 μL acidified plasma (defined as Vplasma added to column) to 1.4 mL ice cold 0.1% TFA. Load all diluted acidified plasma from the previous step onto the columns. […]
For orientation: ELISA stands for enzyme-linked immunosorbent assay.

One may read the IC50 as the concentration at which inhibition is half-maximal. A low value points to greater potency in that assay.

Sequence of GOAT enzyme (P0C7A3 whole entry): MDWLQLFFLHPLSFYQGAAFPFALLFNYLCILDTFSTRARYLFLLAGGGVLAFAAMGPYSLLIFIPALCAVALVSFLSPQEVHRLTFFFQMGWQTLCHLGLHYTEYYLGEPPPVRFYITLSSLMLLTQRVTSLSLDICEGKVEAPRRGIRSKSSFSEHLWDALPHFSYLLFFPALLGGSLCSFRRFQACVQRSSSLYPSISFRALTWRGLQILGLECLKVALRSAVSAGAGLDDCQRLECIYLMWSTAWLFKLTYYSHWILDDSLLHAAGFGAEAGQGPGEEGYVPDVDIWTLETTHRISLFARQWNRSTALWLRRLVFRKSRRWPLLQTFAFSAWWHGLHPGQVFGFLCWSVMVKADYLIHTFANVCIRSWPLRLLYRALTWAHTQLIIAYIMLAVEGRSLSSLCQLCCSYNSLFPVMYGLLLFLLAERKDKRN
Sequence of human GOAT (Q96T53 whole entry): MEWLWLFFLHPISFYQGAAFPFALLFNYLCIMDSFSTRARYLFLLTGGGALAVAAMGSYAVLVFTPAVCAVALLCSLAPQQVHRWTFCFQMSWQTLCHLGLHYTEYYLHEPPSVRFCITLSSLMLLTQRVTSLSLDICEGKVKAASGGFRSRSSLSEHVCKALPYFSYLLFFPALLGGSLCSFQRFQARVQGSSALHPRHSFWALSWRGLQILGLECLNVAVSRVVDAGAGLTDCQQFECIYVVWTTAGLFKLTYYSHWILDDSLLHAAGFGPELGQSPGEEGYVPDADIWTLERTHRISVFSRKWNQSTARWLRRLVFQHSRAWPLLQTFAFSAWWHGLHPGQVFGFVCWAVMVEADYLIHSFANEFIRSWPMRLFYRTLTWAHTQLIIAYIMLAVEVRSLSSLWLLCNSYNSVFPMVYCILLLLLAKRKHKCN
Description for human GOAT: Human GOAT gene (Accession number: NM_001100916) is subcloned to pAN51 baculoviral expression vector. Baculovirus stock is prepared following the Bac-to-Bac Protocol provided by the vendor, Invitrogen, California, USA. Five mililiters of human GOAT baculoviral stock are added to 500 mL Sf9 cells in HyQ SFX-Insect™ media (HyClone catalog number SH30278.02) at the density of 1×10^6 cells per milliliter in a 2 L Erlenmeyer flask. The flask with human GOAT gene infected Sf9 cells is put on a plate shaker at 120 rpm at 28° C. for 48 h. After 48 h incubation, cells are centrifuged at 1,000×g for 10 min at 4° C. The cell pellets are collected and stored at −80° C. in a freezer until ready for further processing.
Preparation of Microsomal Membrane of GOAT Enzyme for the Enzymatic Assay:
One gram cell pellets are suspended in 9 mL chilled homogenization buffer (50 mM Tris-HCl, 250 mM sucrose, adjusted to pH 7.5, and sterile filtered through 0.2 μm Millipore filter). The cell suspension is transferred to a Dounce glass homogenizer. Cell pellets are homogenized with 40 strokes on ice. The homogenate is centrifuged at 3,000 rpm in a Beckman swing bucket rotor at 4° C. for 10 min to remove unbroken cells. The supernatant is collected and centrifuged at 40,000×g for 1 h at 4° C. The resulting membrane pellet is suspended in the homogenization buffer using a Dounce glass homogenizer and stored at −20° C. in the freezer for the assay. For long term storage of the human GOAT enzyme membrane preparation, the suspended membrane is stored in a −80° C. freezer.
Human GOAT Enzymatic Assay Protocol:
Prepare test compounds in DMSO to make up a 0.2 mM stock solution. Serially dilute the stock solution in DMSO for ten concentrations with final compound concentrations ranging from 10 μM to 0.5 nM in a 96-well round-bottom plate. Prepare enzyme and substrate solutions in assay buffer (0.02% TWEEN™-20 in 50 mM Tris, pH 7.5 containing 250 mM sucrose, 1 mg/mL BSA and 10 mM EDTA). Add diluted compound (1 μL) to each well of row A to N of a corresponding low protein binding 384 well plate. […] Incubate the mixture for 1 h at RT on a gently rotating oscillator. Add 4 M guanidine hydrochloride (20 μL) to all wells, mix, and incubate for 3 h to stop the reaction.
Aspirate the blocking buffer from ELISA plate and add blocking buffer (23 μL) to columns 1-24, rows A-N. Reserve rows O and P for the acylghrelin standard curve. Add the reaction mixture (2 μL) to the ELISA plates. […] Incubate the reaction mixture or biotin-labeled AG standard in the ELISA plate overnight at 4° C. The following day, wash the plate 3× with wash buffer (0.1% TWEEN™-20/PBS, 100 μL per well in each wash cycle). […] Wash the plate 3× with the wash buffer, similarly to the previous step. Add Protein G-HRP (25 μL) (Southern Biotech) diluted 3,000× in blocking buffer and incubate 1 h at RT. Wash the late 3× with wash buffer, as in the previous steps. Add TMB reagent (25 μL) (Kirkegaard & Perry Laboratories, Inc.) to each well and let develop for 20 min and stop with 1 M phosphoric acid (25 μL per well). Read plates at 450 nm using an ENVISION® Multilabel plate reader. AG levels are calculated versus a fitted standard curve and percent inhibition calculated.

On human GOAT, `Cc1nc(Cl)nc(N)c1CCC1CCN(C(=O)[C@H](C)NC(=O)c2cn[nH]c2C)CC1` [Example 2, N-[(1S)-2-[4-[2-(4-Amino-2-chloro-6-methyl-pyrimidin-5-yl)ethyl]-1-piperidyl]-1-methyl-2-oxo-ethyl]-5-methyl-1H-pyrazole-4-carboxamide] had an IC50 of 54.4 nM.
Take `Cc1nc(N)c(CCC2CCCN(C(=O)[C@H](C)NC(=O)c3ccncc3)CC2)c(Cl)n1` (stereo partly drawn) [Example 37, N-[(1S)-2-[(4R,S)-4-[2-(4-Amino-6-chloro-2-methyl-pyrimidin-5-yl)ethyl]azepan-1-yl]-1-methyl-2-oxo-ethyl] pyridine-4-carboxamide]: the IC50 against human GOAT stood at 574 nM.
`Cc1nc(N)c(CCC2CCN(C(=O)[C@H](C)NC(=O)c3cnc(C)s3)CC2)c(Cl)n1` [Example 42, N-[(1S)-2-[4-[2-(4-Amino-6-chloro-2-methyl-pyrimidin-5-yl)ethyl]-1-piperidyl]-1-methyl-2-oxo-ethyl]-2-methyl-thiazole-5-carboxamide]: on GOAT enzyme (0.3 mg/kg), the “decrease of plasma AG” value is recorded as 51%, the “increase of UAG” value turned out to be 1.61 fold and the “reduction in AG to total ghrelin ratio” value is 61%. Moreover, on GOAT enzyme (1 mg/kg), the “decrease of plasma AG” value turned out to be 57%, the “increase of UAG” value stood at 2.04 fold and the “reduction in AG to total ghrelin ratio” value was 73%. At GOAT enzyme (3 mg/kg), the “decrease of plasma AG” value amounted to 70%, the “increase of UAG” value was determined as 2.00 fold and the “reduction in AG to total ghrelin ratio” value was found to be 81%. In addition, on GOAT enzyme (0.3 mg/kg oral BID 3 days), the “AG (% of control)” value was 49 ± 7 (n = 7) % of control, the “AG/Total-ghrelin (% of vehicle control)” value is listed as 39 ± 2 (n = 7) % of vehicle control and the “UAG (% of vehicle control)” value is listed as 161 ± 24 (n = 7) % of vehicle control. In addition, at GOAT enzyme (1 mg/kg oral BID 3 days), the “AG (% of control)” value is given as 43 ± 6 (n = 7) % of control, the “AG/Total-ghrelin (% of vehicle control)” value is given as 27 ± 1 (n = 7) % of vehicle control and the “UAG (% of vehicle control)” value is 204 ± 24 (n = 7) % of vehicle control. Besides, on GOAT enzyme (3 mg/kg oral BID 3 days), the “AG (% of control)” value is 30 ± 4 (n = 7) % of control, the “AG/Total-ghrelin (% of vehicle control)” value is on record as 19 ± 1 (n = 7) % of vehicle control and the “UAG (% of vehicle control)” value was 200 ± 20 (n = 7) % of vehicle control. Further, the 50% inhibitory concentration (IC50) at human GOAT stood at 96.4 ± 28.3 nM.
Take `Cc1nc(N)c(CCC2CCN(C(=O)[C@H](C)NC(=O)c3ccnn3C)CC2)c(Cl)n1` [Example 66, N-[(1S)-2-[4-[2-(4-Amino-6-chloro-2-methyl-pyrimidin-5-yl)ethyl]-1-piperidyl]-1-methyl-2-oxo-ethyl]-2-methyl-pyrazole-3-carboxamide]: the “decrease of plasma AG” value at GOAT enzyme (0.2 mg/kg) came to 34%; on GOAT enzyme (0.6 mg/kg), 52%; at GOAT enzyme (2 mg/kg) it was 72%; at GOAT enzyme (6 mg/kg), 79%; at GOAT enzyme (18 mg/kg), 81%. Further, the “increase of UAG” value on GOAT enzyme (0.2 mg/kg) is 2.13 fold; at GOAT enzyme (0.6 mg/kg), 2.61 fold; on GOAT enzyme (2 mg/kg) it was 2.92 fold; on GOAT enzyme (6 mg/kg), 3.02 fold; at GOAT enzyme (18 mg/kg) it was 2.79 fold. In addition, the “reduction in AG to total ghrelin ratio” value on GOAT enzyme (0.2 mg/kg) was 50%; at GOAT enzyme (0.6 mg/kg), 65%; at GOAT enzyme (2 mg/kg), 79%; on GOAT enzyme (6 mg/kg), 84%; on GOAT enzyme (18 mg/kg), 86%. The “AG (% of control)” value on GOAT enzyme (0.2 mg/kg oral BID 3 days) was 66 ± 12 (n = 7) % of control; at GOAT enzyme (0.6 mg/kg oral BID 3 days) it was 48 ± 4 (n = 7) % of control; on GOAT enzyme (2 mg/kg oral BID 3 days), 28 ± 3 (n = 14) % of control; on GOAT enzyme (6 mg/kg oral BID 3 days), 21 ± 3 (n = 7) % of control; on GOAT enzyme (18 mg/kg oral BID 3 days), 19 ± 6 (n = 7) % of control. Further, the “AG/Total-ghrelin (% of vehicle control)” value on GOAT enzyme (0.2 mg/kg oral BID 3 days) is 50 ± 3 (n = 7) % of vehicle control; on GOAT enzyme (0.6 mg/kg oral BID 3 days) it was 35 ± 1 (n = 7) % of vehicle control; on GOAT enzyme (2 mg/kg oral BID 3 days), 21 ± 1 (n = 14) % of vehicle control; at GOAT enzyme (6 mg/kg oral BID 3 days) it was 16 ± 1 (n = 7) % of vehicle control; at GOAT enzyme (18 mg/kg oral BID 3 days), 14 ± 2 (n = 7) % of vehicle control. In addition, the “UAG (% of vehicle control)” value at GOAT enzyme (0.2 mg/kg oral BID 3 days) is given as 213 ± 27 (n = 7) % of vehicle control; at GOAT enzyme (0.6 mg/kg oral BID 3 days), 261 ± 30 (n = 7) % of vehicle control; on GOAT enzyme (2 mg/kg oral BID 3 days), 292 ± 43 (n = 14) % of vehicle control; at GOAT enzyme (6 mg/kg oral BID 3 days) it was 302 ± 48 (n = 7) % of vehicle control; on GOAT enzyme (18 mg/kg oral BID 3 days), 279 ± 36 (n = 7) % of vehicle control. The compound also registered an IC50 on human GOAT of 68.9 ± 23.6 nM.
Regarding `COC(=O)N[C@@H](C)C(=O)N1CCC(CCc2c(N)nc(C)nc2Cl)CC1` [Example 71, Methyl N-[(1S)-2-[4-[2-(4-amino-6-chloro-2-methyl-pyrimidin-5-yl)ethyl]-1-piperidyl]-1-methyl-2-oxo-ethyl]carbamate], at GOAT enzyme (0.3 mg/kg), the “decrease of plasma AG” value came to 13%, the “increase of UAG” value was found to be 2.87 fold and the “reduction in AG to total ghrelin ratio” value was 59%. On GOAT enzyme (1 mg/kg), the “decrease of plasma AG” value came to 37%, the “increase of UAG” value is reported as 3.44 fold and the “reduction in AG to total ghrelin ratio” value was found to be 73%. At GOAT enzyme (3 mg/kg), the “decrease of plasma AG” value came to 66%, the “increase of UAG” value came out at 2.90 fold and the “reduction in AG to total ghrelin ratio” value is given as 82%. Further, at GOAT enzyme (0.3 mg/kg oral BID 3 days), the “AG (% of control)” value was 87 ± 18 (n = 7) % of control, the “AG/Total-ghrelin (% of vehicle control)” value is listed as 41 ± 3 (n = 7) % of vehicle control and the “UAG (% of vehicle control)” value is 287 ± 43 (n = 7) % of vehicle control. Moreover, on GOAT enzyme (1 mg/kg oral BID 3 days), the “AG (% of control)” value is 63 ± 15 (n = 7) % of control, the “AG/Total-ghrelin (% of vehicle control)” value was 27 ± 2 (n = 7) % of vehicle control and the “UAG (% of vehicle control)” value is 344 ± 63 (n = 7) % of vehicle control. Also, at GOAT enzyme (3 mg/kg oral BID 3 days), the “AG (% of control)” value is reported as 34 ± 5 (n = 7) % of control, the “AG/Total-ghrelin (% of vehicle control)” value is 18 ± 1 (n = 7) % of vehicle control and the “UAG (% of vehicle control)” value is recorded as 290 ± 30 (n = 7) % of vehicle control. The compound further displayed an IC50 against human GOAT of 149 ± 46 nM.

Source of the values: patent US10227310B2, “Ghrelin 0-acyl transferase inhibitors” (Eli Lilly and Company, priority 2015, dated 2019).
